Where “and” joins values, the source holds several entries; their conditions need not be identical. Equal entries are not always repeated. Toxic doses and inconclusive results are not listed. Cut-off read from the data, not from the text of the source: active = T/C of 150% or more; inactive = T/C below 125%.
Test system: L1210 leukemia ip in BDF1 mice, survival T/C
Experiment: NCI In Vivo Anticancer Drug Screen. Data for tumor model L1210 Leukemia (intraperitoneal) in B6D2F1 (BDF1) mice
Settings: endpoint: mean survival time, higher = longer survival
Summary of the method: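 Ratio derived from survival: compound-dosed mice over vehicle-dosed mice, all bearing a transplantable tumor.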

[1] = dose: 200.0 mg/kg/injection, schedule: Q04DX003 (ip), vehicle: Klucel (hydroxypropylcellulose) (HPC)
[2] = dose: 400.0 mg/kg/injection, schedule: Q04DX003 (ip), vehicle: Klucel (hydroxypropylcellulose) (HPC)
[3] = dose: 100.0 mg/kg/injection, schedule: Q01DX001 (ip), vehicle: Klucel (hydroxypropylcellulose) (HPC)
[4] = dose: 200.0 mg/kg/injection, schedule: Q01DX001 (ip), vehicle: Klucel (hydroxypropylcellulose) (HPC)
[5] = dose: 400.0 mg/kg/injection, schedule: Q01DX001 (ip), vehicle: Klucel (hydroxypropylcellulose) (HPC)
[6] = dose: 100.0 mg/kg/injection, schedule: Q01DX009 (ip), vehicle: saline
[7] = dose: 100.0 mg/kg/injection, schedule: Q01DX009 (ip), vehicle: saline with Tween-80
[8] = dose: 200.0 mg/kg/injection, schedule: Q01DX009 (ip), vehicle: saline with Tween-80
[9] = dose: 400.0 mg/kg/injection, schedule: Q01DX009 (ip), vehicle: saline with Tween-80
[10] = dose: 100.0 mg/kg/injection, schedule: Q01DX009 (ip), vehicle: Klucel (hydroxypropylcellulose) (HPC)
[11] = dose: 200.0 mg/kg/injection, schedule: Q01DX009 (ip), vehicle: Klucel (hydroxypropylcellulose) (HPC)
[12] = dose: 400.0 mg/kg/injection, schedule: Q01DX009 (ip), vehicle: Klucel (hydroxypropylcellulose) (HPC)
[13] = dose: 100.0 mg/kg/injection, schedule: Q01DX001 (ip), vehicle: saline
[14] = dose: 200.0 mg/kg/injection, schedule: Q01DX001 (ip), vehicle: saline
[15] = dose: 400.0 mg/kg/injection, schedule: Q01DX001 (ip), vehicle: saline
[16] = dose: 25.0 mg/kg/injection, schedule: Q01DX009 (ip), vehicle: Klucel (hydroxypropylcellulose) (HPC)
[17] = dose: 50.0 mg/kg/injection, schedule: Q01DX009 (ip), vehicle: Klucel (hydroxypropylcellulose) (HPC)

Measured: T/C

Nc1cccc(C(O)c2ccccc2)c1 (stereo not drawn)
inactive: dose: 100.0 mg/kg/injection, schedule: Q04DX003 (ip), vehicle: Klucel (hydroxypropylcellulose) (HPC) 90 % of control | [1] 92 % of control | [2] 95 % of control

C=C(Br)CNC(=O)CCCl
inactive: dose: 6.25 mg/kg/injection, schedule: Q01DX009 (ip), vehicle: other 109 % of control | dose: 12.5 mg/kg/injection, schedule: Q01DX009 (ip), vehicle: other 98 % of control | dose: 25.0 mg/kg/injection, schedule: Q01DX009 (ip), vehicle: other 102 % of control

Cc1cccc(Cl)c1NC(=O)C(C)C
inactive: dose: 100.0 mg/kg/injection, schedule: Q01DX009 (ip), vehicle: other 101 % of control | dose: 200.0 mg/kg/injection, schedule: Q01DX009 (ip), vehicle: other 104 % of control | dose: 400.0 mg/kg/injection, schedule: Q01DX009 (ip), vehicle: other 98 % of control

O=C1C2(Cl)C3(Cl)C4(Cl)C(Cl)(Cl)C5(Cl)[C@]3(Cl)C1(Cl)[C@]5(Cl)C24Cl (stereo partly drawn)
inactive: dose: 75.0 mg/kg/injection, schedule: Q01DX001 (ip), vehicle: carboxymethylcellulose (CMC) 102 % of control | dose: 150.0 mg/kg/injection, schedule: Q01DX001 (ip), vehicle: carboxymethylcellulose (CMC) 96 % of control

COC(=O)c1c(C(=O)O)coc1C(=O)N1CCCC1
inactive: dose: 75.0 mg/kg/injection, schedule: Q04DX003 (ip), vehicle: Klucel (hydroxypropylcellulose) (HPC) 105 % of control | [3] 100 % of control | dose: 150.0 mg/kg/injection, schedule: Q04DX003 (ip), vehicle: Klucel (hydroxypropylcellulose) (HPC) 89 % of control | [4] 97 % of control | dose: 300.0 mg/kg/injection, schedule: Q04DX003 (ip), vehicle: Klucel (hydroxypropylcellulose) (HPC) 91 % of control | [5] 105 % of control

OCC/C=C/CCCO
inactive: [6] 97 % of control | dose: 200.0 mg/kg/injection, schedule: Q01DX009 (ip), vehicle: saline 96 % of control | dose: 400.0 mg/kg/injection, schedule: Q01DX009 (ip), vehicle: saline 94 % of control

O=C(NCCCCCCNC(=O)NS(=O)(=O)c1ccccc1)NS(=O)(=O)c1ccccc1
inactive: dose: 50.0 mg/kg/injection, schedule: Q01DX001 (ip), vehicle: carboxymethylcellulose (CMC) 119 % of control | dose: 100.0 mg/kg/injection, schedule: Q01DX001 (ip), vehicle: carboxymethylcellulose (CMC) 102 % of control | dose: 200.0 mg/kg/injection, schedule: Q01DX001 (ip), vehicle: carboxymethylcellulose (CMC) 107 % of control | dose: 400.0 mg/kg/injection, schedule: Q01DX001 (ip), vehicle: carboxymethylcellulose (CMC) 105 % of control

O=C(Nc1ccccc1)N(Cc1ccccc1)c1ccccc1
inactive: [7] 90 % of control | dose: 100.0 mg/kg/injection, schedule: Q04DX003 (ip), vehicle: saline with Tween-80 101 % of control | [8] 89 % of control | dose: 200.0 mg/kg/injection, schedule: Q04DX003 (ip), vehicle: saline with Tween-80 101 % of control | [9] 96 % of control | dose: 400.0 mg/kg/injection, schedule: Q04DX003 (ip), vehicle: saline with Tween-80 86 % of control

CCN(CC)C(=O)O/N=C(/C)c1ccccc1
inactive: dose: 100.0 mg/kg/injection, schedule: Q01DX001 (ip), vehicle: other 96 % of control | dose: 200.0 mg/kg/injection, schedule: Q01DX001 (ip), vehicle: other 91 % of control

Cc1ccc(NC(=S)NC(Cc2ccccc2)c2ccccc2)cc1 (stereo not drawn)
inactive: [10] 97 % of control | [11] 94 % of control | [1] 93 % of control | [12] 96 % of control | [2] 102 % of control

O=C(Nc1ccccc1F)OCCOc1ccc([N+](=O)[O-])cc1
inactive: [10] 96 % of control | [11] 100 % of control | [12] 94 % of control

O=C1NC2c3ccccc3CCC12 (stereo not drawn)
inactive: dose: 100.0 mg/kg/injection, schedule: Q04DX002 (ip), vehicle: saline with Tween-80 102 % of control | dose: 200.0 mg/kg/injection, schedule: Q04DX002 (ip), vehicle: saline with Tween-80 100 % of control | dose: 400.0 mg/kg/injection, schedule: Q04DX002 (ip), vehicle: saline with Tween-80 96 % of control

O=C(O)C1OC1(c1ccccc1Cl)c1ccccc1Cl (stereo not drawn)
inactive: dose: 50.0 mg/kg/injection, schedule: Q01DX001 (ip), vehicle: saline 101 % of control | [13] 95 % of control | [14] 98 % of control | [15] 104 % of control

CN(C)[C@@H]1C(=O)C(C(=O)NCNC(CO)(CO)CO)=C(O)[C@@]2(O)C(=O)C3=C(O)c4c(O)cccc4[C@@](C)(O)[C@H]3C[C@@H]12
inactive: dose: 1.0 mg/kg/injection, schedule: Q01DX Z (ip), vehicle: saline 100 % of control | dose: 4.0 mg/kg/injection, schedule: Q01DX Z (ip), vehicle: saline 100 % of control | dose: 14.0 mg/kg/injection, schedule: Q01DX Z (ip), vehicle: saline 108 % of control | dose: 15.0 mg/kg/injection, schedule: Q01DX Z (ip), vehicle: saline 102 % of control | dose: 25.0 mg/kg/injection, schedule: Q01DX009 (ip), vehicle: saline 104 % of control | dose: 28.0 mg/kg/injection, schedule: Q01DX Z (ip), vehicle: saline 94 % of control | dose: 50.0 mg/kg/injection, schedule: Q01DX009 (ip), vehicle: saline 97 % of control and 101 % of control | dose: 60.0 mg/kg/injection, schedule: Q01DX Z (ip), vehicle: saline 100 % of control | [13] 93 % of control and 95 % of control | [6] 98 % of control and 97 % of control | dose: 100.0 mg/kg/injection, schedule: Q04DX003 (ip), vehicle: acetone 92 % of control | dose: 112.0 mg/kg/injection, schedule: Q01DX Z (ip), vehicle: saline 93 % of control | dose: 120.0 mg/kg/injection, schedule: Q01DX Z (ip), vehicle: saline 113 % of control | [14] 108 % of control and 106 % of control | dose: 200.0 mg/kg/injection, schedule: Q04DX003 (ip), vehicle: acetone 100 % of control and 94 % of control | dose: 224.0 mg/kg/injection, schedule: Q01DX Z (ip), vehicle: saline 115 % of control | dose: 240.0 mg/kg/injection, schedule: Q01DX Z (ip), vehicle: saline 111 % of control | dose: 266.0 mg/kg/injection, schedule: Q01DX009 (ip), vehicle: saline 96 % of control | [15] 104 % of control and 92 % of control | dose: 400.0 mg/kg/injection, schedule: Q04DX003 (ip), vehicle: acetone 91 % of control and 90 % of control

CCOC(=O)c1cnc(OCC)nc1Nc1ccccc1Br
inactive: [3] 100 % of control | [4] 95 % of control | [5] 97 % of control

NS(=O)(=O)c1ccc(N=Nc2ncc(CCNC3=CC(=O)C(=O)c4ccccc43)[nH]2)cc1
inactive: dose: 12.5 mg/kg/injection, schedule: Q01DX009 (ip), vehicle: Klucel (hydroxypropylcellulose) (HPC) 93 % of control | [16] 96 % of control | [17] 96 % of control and 92 % of control

O=C1c2cccc3cc([N+](=O)[O-])cc(c23)C(=O)N1Cc1cccnc1
inactive: dose: 100.0 mg/kg/injection, schedule: Q04DX003 (ip), vehicle: carboxymethylcellulose (CMC) 93 % of control | dose: 200.0 mg/kg/injection, schedule: Q04DX003 (ip), vehicle: carboxymethylcellulose (CMC) 90 % of control | dose: 400.0 mg/kg/injection, schedule: Q04DX003 (ip), vehicle: carboxymethylcellulose (CMC) 97 % of control

OC(Cc1[nH]c2ccccc2c1C(O)(C(F)(F)F)C(F)(F)F)(C(F)(F)F)C(F)(F)F
inactive: dose: 100.0 mg/kg/injection, schedule: Q04DX003 (ip), vehicle: other 109 % of control | dose: 200.0 mg/kg/injection, schedule: Q04DX003 (ip), vehicle: other 109 % of control | dose: 400.0 mg/kg/injection, schedule: Q04DX003 (ip), vehicle: other 98 % of control

CCOC(=O)C1(c2ccccc2)CCN(CC(O)COc2cc(C)ccc2C(C)C)CC1 (stereo not drawn)
inactive: [16] 91 % of control | [17] 100 % of control | [10] 93 % of control and 97 % of control

CCCCc1ccc(C2=CC(=O)C(c3ccc(CCCC)cc3)=CC2=O)cc1
inactive: [13] 98 % of control | [14] 95 % of control | [15] 97 % of control

O=C(COc1ccc(Cl)cc1)c1ccccc1
inactive: [7] 99 % of control | [8] 87 % of control | [9] 100 % of control
